In PubChem BioAssay AID248 (DTP/NCI, 2004):
Values joined by “and” are separate entries in the source; they are usually repeats but may differ in a detail not shown here. Equal values may be shown once. Toxic doses and inconclusive results are not listed. Cut-off read from the data, not from the text of the source: active = T/C of 150% or more; inactive = T/C below 125%. Square brackets hold non-standard residues; d marks the D form. Peptide text beside a SMILES is read from it. * marks the point of attachment. ξ: configuration not given here. Cbz = O=C(OCc1ccccc1)*; ξNva = CCCC(N)C(=O)O

Test system: L1210 leukemia ip in BDF1 mice, survival T/C
Assay: NCI In Vivo Anticancer Drug Screen. Data for tumor model L1210 Leukemia (intraperitoneal) in B6D2F1 (BDF1) mice
Conditions: endpoint: mean survival time, higher = longer survival
Summary of the method: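 Transplanted-tumor mice were given test agent; controls received vehicle only. Survival readings from the two groups were divided (treated over control).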

[1] = dose: 100.0 mg/kg/injection, schedule: Q01DX001 (ip), vehicle: saline
[2] = dose: 200.0 mg/kg/injection, schedule: Q01DX001 (ip), vehicle: saline
[3] = dose: 400.0 mg/kg/injection, schedule: Q01DX001 (ip), vehicle: saline
[4] = dose: 100.0 mg/kg/injection, schedule: Q04DX002 (ip), vehicle: saline with Tween-80
[5] = dose: 25.0 mg/kg/injection, schedule: Q01DX009 (ip), vehicle: Klucel (hydroxypropylcellulose) (HPC)
[6] = dose: 50.0 mg/kg/injection, schedule: Q01DX009 (ip), vehicle: Klucel (hydroxypropylcellulose) (HPC)
[7] = dose: 100.0 mg/kg/injection, schedule: Q01DX009 (ip), vehicle: Klucel (hydroxypropylcellulose) (HPC)
[8] = dose: 100.0 mg/kg/injection, schedule: Q04DX003 (ip), vehicle: Klucel (hydroxypropylcellulose) (HPC)
[9] = dose: 200.0 mg/kg/injection, schedule: Q01DX009 (ip), vehicle: Klucel (hydroxypropylcellulose) (HPC)
[10] = dose: 200.0 mg/kg/injection, schedule: Q04DX003 (ip), vehicle: Klucel (hydroxypropylcellulose) (HPC)
[11] = dose: 400.0 mg/kg/injection, schedule: Q01DX009 (ip), vehicle: Klucel (hydroxypropylcellulose) (HPC)
[12] = dose: 400.0 mg/kg/injection, schedule: Q04DX003 (ip), vehicle: Klucel (hydroxypropylcellulose) (HPC)
[13] = dose: 100.0 mg/kg/injection, schedule: Q01DX009 (ip), vehicle: saline with Tween-80
[14] = dose: 100.0 mg/kg/injection, schedule: Q04DX003 (ip), vehicle: saline with Tween-80
[15] = dose: 200.0 mg/kg/injection, schedule: Q01DX009 (ip), vehicle: saline with Tween-80
[16] = dose: 200.0 mg/kg/injection, schedule: Q04DX003 (ip), vehicle: saline with Tween-80
[17] = dose: 400.0 mg/kg/injection, schedule: Q04DX003 (ip), vehicle: saline with Tween-80

Measured: T/C

COc1ccccc1NS(=O)(=O)c1ccccc1
inactive: dose: 100.0 mg/kg/injection, schedule: Q01DX001 (ip), vehicle: carboxymethylcellulose (CMC) 92 % of control | dose: 200.0 mg/kg/injection, schedule: Q01DX001 (ip), vehicle: carboxymethylcellulose (CMC) 103 % of control | dose: 400.0 mg/kg/injection, schedule: Q01DX001 (ip), vehicle: carboxymethylcellulose (CMC) 103 % of control

NC(Cc1c[nH]c2c(N(CCCl)CCCl)cccc12)C(=O)O (centres undefined)
inactive: dose: 0.88 mg/kg/injection, schedule: Q01DX Z (ip), vehicle: methylcellulose (MC) 101 % of control | dose: 1.3 mg/kg/injection, schedule: Q01DX Z (ip), vehicle: methylcellulose (MC) 95 % of control | dose: 2.0 mg/kg/injection, schedule: Q01DX Z (ip), vehicle: methylcellulose (MC) 95 % of control | dose: 3.0 mg/kg/injection, schedule: Q01DX Z (ip), vehicle: methylcellulose (MC) 101 % of control | dose: 5.0 mg/kg/injection, schedule: Q01DX Z (ip), vehicle: methylcellulose (MC) 118 % of control | dose: 40.0 mg/kg/injection, schedule: Q01DX Z (ip), vehicle: methylcellulose (MC) 118 % of control

CCCCCCCN(CCCCCCC)CCC(=O)c1ccc2cc(Br)c3ccccc3c2c1
inactive: dose: 55.0 mg/kg/injection, schedule: Q01DX Z (ip), vehicle: methylcellulose (MC) 97 % of control | dose: 83.0 mg/kg/injection, schedule: Q01DX Z (ip), vehicle: methylcellulose (MC) 86 % of control | dose: 125.0 mg/kg/injection, schedule: Q01DX Z (ip), vehicle: methylcellulose (MC) 97 % of control

Cc1cc(Nc2ccc(N=Nc3ccc(O)c4ncccc34)cc2)nc(C)n1
inactive: [1] 102 % of control | [2] 105 % of control | [3] 103 % of control

CN(C)Cc1cc(Cl)cc(CN(C)C)c1O
inactive: [4] 104 % of control | dose: 100.0 mg/kg/injection, schedule: Q04DX003 (ip), vehicle: saline 99 % of control | dose: 200.0 mg/kg/injection, schedule: Q04DX003 (ip), vehicle: saline 104 % of control

Cc1cc(C)c(NC(=O)Nc2cccc3ccccc23)c(C)c1
inactive: [5] 95 % of control | [6] 96 % of control | [7] 96 % of control and 103 % of control | [8] 96 % of control | [9] 92 % of control | [10] 93 % of control | [11] 91 % of control | [12] 96 % of control

CCCCCOc1ccc(C(=O)CC(=O)OCC)cc1
inactive: [7] 98 % of control | [8] 93 % of control | [9] 104 % of control | [10] 95 % of control | [11] 93 % of control | [12] 93 % of control

Oc1ccccc1CNc1ccccc1
inactive: [8] 96 % of control | [10] 94 % of control | [12] 96 % of control

O=C(Nc1ccc(Cl)cc1[N+](=O)[O-])Oc1ccc(Cl)cc1Cc1ccccc1
inactive: dose: 50.0 mg/kg/injection, schedule: Q04DX003 (ip), vehicle: saline with Tween-80 116 % of control | dose: 100.0 mg/kg/injection, schedule: Q01DX001 (ip), vehicle: saline with Tween-80 98 % of control | [13] 100 % of control and 87 % of control | [4] 98 % of control and 102 % of control | [14] 98 % of control and 92 % of control | dose: 200.0 mg/kg/injection, schedule: Q01DX001 (ip), vehicle: saline with Tween-80 93 % of control | [15] 94 % of control and 95 % of control | dose: 200.0 mg/kg/injection, schedule: Q04DX002 (ip), vehicle: saline with Tween-80 94 % of control and 98 % of control | [16] 102 % of control | dose: 400.0 mg/kg/injection, schedule: Q01DX001 (ip), vehicle: saline with Tween-80 91 % of control | dose: 400.0 mg/kg/injection, schedule: Q01DX009 (ip), vehicle: saline with Tween-80 94 % of control and 90 % of control | dose: 400.0 mg/kg/injection, schedule: Q04DX002 (ip), vehicle: saline with Tween-80 96 % of control and 98 % of control | [17] 102 % of control and 87 % of control

CCCN([Si](C)(C)C)[Si](C)(C)C
inactive: dose: 50.0 mg/kg/injection, schedule: Q01DX009 (ip), vehicle: saline with Tween-80 100 % of control | [13] 94 % of control | [14] 99 % of control | [15] 100 % of control | [16] 106 % of control

CCCC(NC(=O)CNC(=O)CNC(=O)OCc1ccccc1)C(=O)OC (stereo not drawn) (Cbz-Gly-Gly-[ξNva]-OMe)
inactive: [14] 98 % of control | [16] 97 % of control | [17] 103 % of control

COc1cccc(-n2cccc2)c1
inactive: dose: 100.0 mg/kg/injection, schedule: Q01DX001 (ip), vehicle: other 103 % of control | dose: 200.0 mg/kg/injection, schedule: Q01DX001 (ip), vehicle: other 105 % of control | dose: 400.0 mg/kg/injection, schedule: Q01DX001 (ip), vehicle: other 108 % of control

O=C1CC2(CCNCC2)C(=O)N1N1CCCCCC1
inactive: [1] 110 % of control | [2] 112 % of control | [3] 100 % of control

CCC(=O)n1c(=O)n(C2CCN(CCCS(=O)(=O)c3ccccc3)CC2)c2ccccc21
inactive: dose: 50.0 mg/kg/injection, schedule: Q01DX001 (ip), vehicle: Klucel (hydroxypropylcellulose) (HPC) 95 % of control | dose: 100.0 mg/kg/injection, schedule: Q01DX001 (ip), vehicle: Klucel (hydroxypropylcellulose) (HPC) 95 % of control | dose: 200.0 mg/kg/injection, schedule: Q01DX001 (ip), vehicle: Klucel (hydroxypropylcellulose) (HPC) 100 % of control

O=C1OC(c2cccc(Cl)c2)=N/C1=C\c1cccc2ccccc12
inactive: [7] 90 % of control | [9] 90 % of control | [11] 96 % of control

COc1cc(Nc2ncnc(N)c2[N+](=O)[O-])cc(OC)c1OC
inactive: [16] 88 % of control

CCOC(=O)NCC(CCN1CCCC1)(c1cccc2ccccc12)C(C)C (centres undefined)
inactive: dose: 12.5 mg/kg/injection, schedule: Q01DX009 (ip), vehicle: Klucel (hydroxypropylcellulose) (HPC) 104 % of control | dose: 12.5 mg/kg/injection, schedule: Q04DX003 (ip), vehicle: Klucel (hydroxypropylcellulose) (HPC) 87 % of control | [5] 102 % of control | [6] 101 % of control | dose: 50.0 mg/kg/injection, schedule: Q04DX003 (ip), vehicle: Klucel (hydroxypropylcellulose) (HPC) 95 % of control

N#CC(C#N)=Cc1cccc(OCc2ccccc2)c1
inactive: [7] 100 % of control | [9] 91 % of control | [11] 91 % of control

CCCC1C(=O)N2C(N(C)C)=Nc3ccc(C)cc3N2C1=O (centres undefined)
inactive: dose: 50.0 mg/kg/injection, schedule: Q01DX009 (ip), vehicle: carboxymethylcellulose (CMC) 101 % of control | [1] 110 % of control | dose: 100.0 mg/kg/injection, schedule: Q01DX009 (ip), vehicle: carboxymethylcellulose (CMC) 101 % of control | [2] 98 % of control | dose: 200.0 mg/kg/injection, schedule: Q01DX009 (ip), vehicle: carboxymethylcellulose (CMC) 101 % of control | [3] 93 % of control | dose: 400.0 mg/kg/injection, schedule: Q01DX009 (ip), vehicle: carboxymethylcellulose (CMC) 92 % of control
